Test results from patent publication US20020052295A1, “Diacyl derivatives of propylene diamine having herbicidal activity” (priority 1999, published 2002).

Legend:
Conditions in all cases: lowest tested rate giving 80% or greater inhibition, approx. 14 days after planting and treating, greenhouse
ABUTH = test: Pre-emergence herbicidal activity on ABUTH (velvetleaf); assay type: in vivo, Abutilon theophrasti
Text: (§1) All such uses, and the biological activity enabling such uses, are embraced by the term “herbicidal” herein. Tables 15 and 16 summarize results of tests conducted as described below to determine the pre-emergence herbicidal activity, in the form of a GR80 value, of illustrative compounds of this invention. […] Where herbicidal activity was evident but 80% inhibition was not achieved at the highest rate tested (typically 1000 g/ha), an asterisk (*) is shown in the following tables. Herbicidal activity evident in the form of symptoms of phytotoxicity, in the absence of at least 80% inhibition at any rate, is indicated in the tables by “phyto”. A blank cell in the following tables indicates no herbicidal or phytotoxic response at any rate tested.
(§2) The pre-emergence tests were conducted by the following procedure. Topsoil was sieved to pass through a 1.27 cm screen. Fertilizer was added to the topsoil and the mixture was then sterilized by heating. The topsoil mixture was placed in a pot and compacted to a depth of 1.0 to 1.25 cm from the top of the pot. Seeds of each of several monocotyledonous and dicotyledonous annual plant species were placed on top of the soil. Additional soil was subsequently placed over the seeds to level-fill the pot. A known amount of each test compound dissolved or suspended in an appropriate organic solvent was diluted with a 50:50 mix of acetone and water and applied to the surface of the soil. After treatment the plants were placed in a greenhouse with a 30/21° C. day/night temperature regime where they received 0.64 cm of overhead irrigation. All subsequent watering consisted of a light overhead mist and/or subirrigation as needed for germination and growth.
(§3) Approximately 14 days after planting and treating, the plants were observed and herbicidal efficacy recorded as percent inhibition by comparison with untreated plants.
(§4) The plant species usually regarded as weeds which were utilized in the tests are identified in the tables below according to the following legend, in which “d” indicates a dicotyledonous species and “m” a monocotyledonous species. All monocotyledonous species included in the tests herein are grasses.

SOLNI = test: Pre-emergence herbicidal activity on SOLNI (black nightshade); assay type: in vivo, Solanum nigrum
Text: as §1, §2, §3, §4

AMARE = test: Pre-emergence herbicidal activity on AMARE (redroot pigweed); assay type: in vivo, Amaranthus retroflexus
Text: as §1, §2, §3, §4

DATST = test: Pre-emergence herbicidal activity on DATST (jimsonweed); assay type: in vivo, Datura stramonium
Text: as §1, §2, §3, §4

CHEAL = test: Pre-emergence herbicidal activity on CHEAL (common lambsquarters); assay type: in vivo, Chenopodium album
Text: as §1, §2, §3, §4

POROL = test: Pre-emergence herbicidal activity on POROL (common purslane); assay type: in vivo, Portulaca oleracea
Text: as §1, §2, §3, §4

CIRAR = test: Pre-emergence herbicidal activity on CIRAR (canada thistle, seedling); assay type: in vivo, Cirsium arvense
Text: as §1, §2, §3, §4

ECHCG = test: Pre-emergence herbicidal activity on ECHCG (barnyardgrass); assay type: in vivo, Echinochloa crus-galli
Text: as §1, §2, §3, §4

PANMI = test: Pre-emergence herbicidal activity on PANMI (wild proso millet); assay type: in vivo, Panicum miliaceum
Text: as §1, §2, §3, §4

SORHA = test: Pre-emergence herbicidal activity on SORHA (johnsongrass, seedling); assay type: in vivo, Sorghum halepense
Text: as §1, §2, §3, §4

SETFA = test: Pre-emergence herbicidal activity on SETFA (giant foxtail); assay type: in vivo, Setaria faberi
Text: as §1, §2, §3, §4

PANDI = test: Pre-emergence herbicidal activity on PANDI (fall panicum); assay type: in vivo, Panicum dichotomiflorum
Text: as §1, §2, §3, §4

BRAPP = test: Pre-emergence herbicidal activity on BRAPP (broadleaf signalgrass); assay type: in vivo, Brachiaria platyphylla
Text: as §1, §2, §3, §4

DIGSA = test: Pre-emergence herbicidal activity on DIGSA (large crabgrass); assay type: in vivo, Digitaria sanguinalis
Text: as §1, §2, §3, §4

CONAR = test: Pre-emergence herbicidal activity on CONAR (field bindweed); assay type: in vivo, Convolvulus arvensis
Text: as §1, §2, §3, §4

Row | SMILES | Pre-emergence activity (GR80) on ABUTH (ABUTH) | Pre-emergence activity (GR80) on SOLNI (SOLNI) | Pre-emergence activity (GR80) on AMARE (AMARE) [g/ha] | Pre-emergence activity (GR80) on DATST (DATST) | Pre-emergence activity (GR80) on CHEAL (CHEAL) [g/ha] | Pre-emergence activity (GR80) on PORAL (POROL) [g/ha] | Pre-emergence activity (GR80) on CIRAR (CIRAR) | Pre-emergence activity (GR80) on ECHCG (ECHCG) | Pre-emergence activity (GR80) on PANMI (PANMI) | Pre-emergence activity (GR80) on SORHA (SORHA) | Pre-emergence activity (GR80) on SETFA (SETFA) | Pre-emergence activity (GR80) on PANDI (PANDI) | Pre-emergence activity (GR80) on BRAPP (BRAPP) | Pre-emergence activity (GR80) on DIGSA (DIGSA) | Pre-emergence activity (GR80) on CONAR (CONAR)
1 | Cc1ccc(C)c(C(=O)NC(C)CNC(=O)c2cccc(C(F)(F)F)c2)c1 (centres unmarked) [Example 64] | 500 g/ha | 250 g/ha | 250 | 1000 g/ha | 250 | 250 | 250 g/ha | 1000 g/ha | 500 g/ha | * (Where herbicidal activity was evident but 80% inhibition was not achieved at the highest rate tested (typically 1000 g/ha), an asterisk (*) is shown) | 1000 g/ha | 250 g/ha | 500 g/ha | 250 g/ha | 
2 | CC(CNC(=O)c1cccc(C(F)(F)F)c1)NC(=O)c1cc(C(C)(C)C)nn1C (centres unmarked) [Example 262] |  |  |  |  |  |  |  |  |  |  |  |  |  | phyto | phyto
3 | Cc1cccc(C(=O)NC(C)CNC(=O)c2cccc(C(F)(F)F)c2)c1C (centres unmarked) [Example 67] | 500 g/ha |  | 500 | 500 g/ha | 250 | 500 | 500 g/ha | * (Where herbicidal activity was evident but 80% inhibition was not achieved at the highest rate tested (typically 1000 g/ha), an asterisk (*) is shown) |  |  | 750 g/ha | 500 g/ha | 1000 g/ha | 500 g/ha | 1000 g/ha
4 | CC(CNC(=O)c1cccc(Cl)c1F)NC(=O)c1cccc(Cl)c1F (centres unmarked) [Example 181] | phyto | * (Where herbicidal activity was evident but 80% inhibition was not achieved at the highest rate tested (typically 1000 g/ha), an asterisk (*) is shown) | 500 | * (Where herbicidal activity was evident but 80% inhibition was not achieved at the highest rate tested (typically 1000 g/ha), an asterisk (*) is shown) | 750 |  | * (Where herbicidal activity was evident but 80% inhibition was not achieved at the highest rate tested (typically 1000 g/ha), an asterisk (*) is shown) |  |  |  | phyto | phyto |  | 500 g/ha | phyto
5 | CC(CNC(=O)c1cccc(C(F)(F)F)c1)NC(=O)c1cccc(C(F)(F)F)c1I (centres unmarked) [Example 15] |  | * (Where herbicidal activity was evident but 80% inhibition was not achieved at the highest rate tested (typically 1000 g/ha), an asterisk (*) is shown) | 64 | * (Where herbicidal activity was evident but 80% inhibition was not achieved at the highest rate tested (typically 1000 g/ha), an asterisk (*) is shown) | 125 | 500 | phyto | phyto |  |  | phyto | phyto |  | phyto | phyto
6 | CC(CNC(=O)c1cccc(C(F)(F)F)c1)NC(=O)c1cc(C(F)(F)F)ccc1Cl (centres unmarked) [Example 9] | phyto | 500 g/ha | 125 | 500 g/ha | 500 | 125 | 750 g/ha | phyto | phyto | * (Where herbicidal activity was evident but 80% inhibition was not achieved at the highest rate tested (typically 1000 g/ha), an asterisk (*) is shown) | 1000 g/ha | 500 g/ha | phyto | 500 g/ha | 
7 | C[C@H](CNC(=O)c1cccc(C(F)(F)F)c1)NC(=O)Oc1cccc(C(F)(F)F)c1 [Example 229, R—N-[1-methyl-2-(3-trifluoromethyl)phenylcarbonylamino]ethyl-3-(trifluoromethyl)phenylcarbamate] | * (Where herbicidal activity was evident but 80% inhibition was not achieved at the highest rate tested (typically 1000 g/ha), an asterisk (*) is shown) | 1000 g/ha | 300 | phyto | 300 | 100 | 300 g/ha | phyto | phyto | phyto | phyto | 300 g/ha |  | 1000 g/ha | phyto
8 | CC(CNC(=O)c1cccc(Br)c1)NC(=O)c1cccc(C(F)(F)F)c1F (centres unmarked) [Example 152] | 750 g/ha | 500 g/ha | 250 | 750 g/ha | 250 | 125 | 250 g/ha | 750 g/ha |  |  |  |  |  | 500 g/ha | 
